Where “and” joins values, the source holds several entries; their conditions need not be identical. Equal entries are not always repeated.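 Compound exposure: 48 hours, 5 concentrations, 96-well plates. GI50: concentration for 50% inhibition of growth. TGI: concentration producing complete growth inhibition.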
How the values were obtained:
Assay in all cases: growth of human tumour cells (NCI), 48 h
OVCAR-4 ovarian = test system: OVCAR-4 ovarian
NCI-H460 lung = test system: NCI-H460 lung
LOX IMVI melanoma = test system: LOX IMVI melanoma
SK-MEL-2 melanoma = test system: SK-MEL-2 melanoma
ACHN renal = test system: ACHN renal
RXF 393 renal = test system: RXF 393 renal
SK-OV-3 ovarian = test system: SK-OV-3 ovarian
HOP-92 NSCLC = test system: HOP-92 NSCLC
NCI-H23 lung = test system: NCI-H23 lung
TK-10 renal = test system: TK-10 renal

| Structure (SMILES) | GI50 (OVCAR-4 ovarian) [µM] | TGI (OVCAR-4 ovarian) [µM] | GI50 (NCI-H460 lung) [µM] | TGI (NCI-H460 lung) [µM] | GI50 (LOX IMVI melanoma) [µM] | TGI (LOX IMVI melanoma) [µM] | GI50 (SK-MEL-2 melanoma) [µM] | TGI (SK-MEL-2 melanoma) [µM] | GI50 (ACHN renal) [µM] | TGI (ACHN renal) [µM] | GI50 (RXF 393 renal) [µM] | TGI (RXF 393 renal) | GI50 (SK-OV-3 ovarian) [µM] | TGI (SK-OV-3 ovarian) [µM] | TGI (HOP-92 NSCLC) [µM] | TGI (NCI-H23 lung) [µM] | TGI (TK-10 renal) [µM] | GI50 (HOP-92 NSCLC) [µM] | GI50 (NCI-H23 lung) [µM] | GI50 (TK-10 renal) [µM] |
| --- | --- | --- | --- | --- | --- | --- | --- | --- | --- | --- | --- | --- | --- | --- | --- | --- | --- | --- | --- | --- |
| CC1(C)N=C(N)N=C(N)N1c1cccc(/C=C/C=C/c2cccc([N+](=O)[O-])c2)c1 | 5.54 | 22.5 | 2.85 | 15.3 | 5.02 | 19.2 | 13.4 | 28.5 | 75.7 | > 100 | 17.4 | > 100 µM | 32.1 | > 100 | – | – | – | – | – | – |
| COc1ccc(-c2oc3cc(O)c(OC)c(O)c3c(=O)c2OC2OC(CO)C(O)C(O)C2O)cc1 (stereo not given) | – | > 100 | – | > 100 | – | > 100 | – | > 100 | – | > 100 | – | – | – | > 100 | > 100 | > 100 | > 100 | – | – | – |
| O=S(=O)(c1ccc(NC(=S)N/N=C/c2ccccc2O)cc1)N1CCCCC1 | – | > 71.4 | – | – | – | 0.109 | – | > 100 | – | 10.2 | – | > 100 µM | – | 37.9 | 66.1 | 6.94 | 4.23 | – | – | – |
| Nc1ccn(C=C=CCO)c(=O)n1 | > 1000 | > 1000 | – | – | > 1000 | > 1000 | > 1000 | > 1000 | > 1000 | > 1000 | – | – | > 1000 | > 1000 | > 1000 | > 1000 | > 1000 | > 1000 | > 1000 | > 1000 |
| S=c1[nH]nc(COc2ccc(Cl)cc2)o1 | – | > 100 | – | > 100 | – | – | – | – | – | > 100 | – | – | – | > 100 | > 100 | > 100 | > 100 | – | – | – |
| Cc1ccc(-c2c(C#N)c(N)nc(N3CCOCC3)c2C#N)o1 | 55.5 | > 100 | 43.3 | > 100 | – | – | 78.8 | > 100 | – | – | 40.7 | > 100 µM | – | – | > 100 | – | > 100 | 23.6 | – | 35.4 |
| CCOP(=O)(OCC)C1C(=O)O[C@H]2CCCC[C@@H]12 (stereo not given in full) | – | > 100 | – | > 100 | – | > 100 | – | > 100 | – | > 100 | – | > 100 µM | – | > 100 | – | > 100 | > 100 | – | – | – |
| CCOC(=O)/C(C1=N[C@H](C(=O)OCC)CS1)=C(\C)O | – | > 100 | – | > 100 | – | > 100 | – | > 100 | – | > 100 | – | > 100 µM | – | – | – | > 100 | – | – | – | – |
| CCCCN(CCCC)C(=O)C(=O)CC(=O)c1ccc(Br)cc1 | – | > 100 | – | > 100 | – | > 100 | – | > 100 | – | > 100 | – | – | – | > 100 | > 100 | > 100 | > 100 | – | – | – |
| CC(=O)c1ccc(Nc2cc(-n3ccnc3)nc3ccccc23)cc1 | > 100 | > 100 | 34.2 | > 100 | – | – | > 100 | > 100 | 48.4 | > 100 | 26 | 76.8 µM | > 100 | > 100 | 29.4 | > 100 | 63 | 4.15 | 49.6 | 15.6 |
| OB([O][Hg][c]1ccccc1)[O][Hg][c]1ccccc1 | 0.334 | 2.01 | 0.589 | 3.06 | 0.173 | 0.366 | 0.168 | 0.509 | 0.493 | 1.39 | 0.229 | 0.829 µM | 1.6 | 2.97 | 0.528 | 2.17 | – | 0.185 | 0.784 | – |
| Cc1cc(Br)cc(C)c1NC(=O)C(=O)CC(=O)c1sc(-n2nc(-c3ccccc3)cc2-c2ccccc2)nc1C | – | > 100 | – | > 100 | – | > 100 | – | – | – | > 100 | – | > 100 µM | – | > 100 | > 100 | > 100 | > 100 | – | – | – |
| CC(=O)O[C@H]1C(=O)[C@@]2(C)C([C@H](OC(=O)c3ccccc3)[C@]3(O)C[C@H](OC(=O)[C@H](O)[C@H](NC(=O)c4ccccc4)c4ccc(Cl)cc4)C(C)=C1C3(C)C)C1(OC(C)=O)CO[C@@H]1C[C@@H]2O (stereo not given in full) | – | 22.1 | – | – | – | 55.9 | – | 0.0635 | 1.66 | > 100 | 0.0187 | 0.0644 µM and 0.0869 µM | – | – | – | – | 14.4 | – | – | 0.0171 |
| O=C1CC(=O)N(C2CCCCC2)C(=O)N1c1ccccc1S(=O)(=O)Oc1ccccc1 | – | > 100 | – | > 100 | – | 7.69 | – | > 100 | – | 36.5 | – | > 100 µM | – | > 100 | > 100 | – | > 100 | – | – | – |
| ClC(=Nc1cccc2ccccc12)N(c1ccccc1)c1ccccc1 | – | > 100 | – | 90.8 | – | > 100 | – | > 100 | – | > 100 | – | > 100 µM | – | > 100 | – | > 100 | > 100 | – | – | – |
| CCOC(=O)Cc1c(Cc2[nH]c(C(=O)OCc3ccccc3)c(CC(=O)OCC)c2CC(=O)OCC)[nH]c(C(=O)OCc2ccccc2)c1CC(=O)OCC | – | – | – | – | – | – | – | – | – | > 100 | – | – | – | > 100 | > 100 | – | – | – | – | – |
| CC(=O)[CH-]C(=O)c1ccccc1.CC(=O)[CH-]C(=O)c1ccccc1.CCN(CC)CC[O-].CCN(CC)CC[O-].Cl.[Ti+4] | 56.5 | > 100 | 29.8 | > 100 | 43.4 | > 100 | 26.9 | 93.9 | 39.5 | > 100 | – | – | 32.6 | > 100 | – | – | – | – | – | – |
| COc1cc(-c2cc(C(=O)N3CCN(C(=O)c4ccccc4NCc4ccco4)CC3)nc3cc(-c4ccccc4)nn23)cc(OC)c1OC | > 26.1 | > 100 | 2.55 | > 100 | 4.01 | > 100 | 2.9 | > 79.4 | 6.97 | > 100 | 1.53 | 4.17 µM | 2.58 | 18.8 | – | > 100 | > 100 | – | 5.5 | 6.74 |
| CC(=O)Oc1c(C)n(CCCl)ccc1=O | – | > 100 | – | > 100 | – | > 100 | – | > 100 | – | > 100 | – | > 100 µM | – | > 100 | – | – | 73.8 | – | – | – |
